From publication PMC10314922, “Fluorescence lifetime FRET assay for live-cell high-throughput screening of the cardiac SERCA pump yields multiple classes of small-molecule allosteric modulators” (Scientific Reports, 2023)
“Also recorded” adds a separate entry of the source. Like-named read-outs stand apart in the source and are kept apart here.

What was measured:
SERCA2a [1] = target: T1, SERCA2a (Sus scrofa, UniProt P11607); experiment: NADH-linked Ca2+-ATPase activity assay in pig cardiac SR (pCSR) vesicles; format: biochemical; conditions: for Ca2+-ATPase C10: concentration yielding 10% effect; for Decrease of ΔFMAX and ΔFMID for Ca2+-ATPase activity: both [Ca2+], stated as size of decrease
T1 construct: Cardiac SR vesicles were isolated from fresh porcine left ventricular tissue using differential centrifugation; from tissue; host or cells: porcine left ventricular tissue (cardiac SR vesicles)
Protocol: (§1) Cardiac SR vesicles were isolated from fresh porcine left ventricular tissue using differential centrifugation of the homogenized tissue as previously described. The SR vesicles were flash-frozen and stored at − 80 °C until needed. The SERCA concentration in the ER preparations purified from HEK cell homogenate is at least 10 times less than in purified porcine cardiac SR[20], but there was sufficient expression of the fluorescent SERCA2a biosensor in HEK cells to detect FRET with high precision by FLT[22],[23],[26].
Functional assays were performed using porcine cardiac SR (pCSR) vesicles. An enzyme-coupled, NADH-linked ATPase assay was used to measure SERCA ATPase activity in 384-well microplates. Each well contained 50 mM MOPS (pH 7.0), 100 mM KCl, 1 mM EGTA, 0.2 mM NADH, 1 mM phosphoenol pyruvate, 10 IU/mL of pyruvate kinase, 10 IU/mL of lactate dehydrogenase, 7 µM of the calcium ionophore A23187 (Sigma), and CaCl2 was added to set free [Ca^2+] to three different concentrations. Ca^2+-ATPase activity was measured at three [Ca^2+]: [Ca^2+]MAX (saturating, pCa 5.4), [Ca^2+]MID (subsaturating, midpoint, pCa 6.2), and [Ca^2+]BAS (basal non-activating, pCa 8.0). 10 μg/mL of SR vesicle, calcium, compound (0.048 to 50 μM), and assay mix were incubated for 20 min at room temperature before measurement of functional assays with each of the 18 hit compounds, because a shorter incubation time than the FRET live-cell assays achieved optimal responses. The assay was started upon the addition of MgATP, at a final concentration of 5 mM (total volume to 80 μL), and absorbance was read at 340 nm in a SpectraMax Plus^384 microplate spectrophotometer (Molecular Devices, Sunnyvale, CA).
(§2) SERCA2a activity, F (rate of ATP hydrolysis or Ca^2+ uptake), was measured at varying pCa and varying compound concentration. F measured at [Ca^2+]MAX (saturating, pCa 5.4) or [Ca^2+]MID (subsaturating, midpoint, pCa 6.2) was corrected by subtracting the basal rate at pCa 8.0) and the % effect due to compound was reported. Concentration response curves (CRC) were fitted using the Hill function to determine VMAX (the activity at saturating [compound]), and EC50, the compound concentration at 50% effect.

[2] = target: T2, human two-color SERCA2a (2CS) biosensor (Homo sapiens, UniProt P16615, INS508[…]); experiment: FRET concentration response curves (FLT-FRET) with the 2CS biosensor in live HEK cells; format: cell-based
T2 construct: expressed in transfected cells
Description: A two-color intramolecular human SERCA2a (2CS) biosensor, based on human cardiac SERCA2a fused to green fluorescent protein (eGFP) and red fluorescent protein (tagRFP) was developed to detect structural changes that are related to the functional changes of SERCA[20],[22],[25]. Briefly, tagRFP was genetically fused to the N-terminus of SERCA (A-domain) and eGFP was inserted as an intrasequence tag before residue 509 in the nucleotide-binding domain (N-domain)[60],[61]. Donor-only and acceptor-only (1CS) biosensors were created in a similar manner as the 2CS biosensor but with the construct containing either only eGFP or only tag-RFP, respectively. […] A null-biosensor construct consisting of eGFP and tagRFP connected by a 32-residue unstructured flexible linker peptide (G32R) was created as described previously[23],[25]. All constructs were cloned into expression vectors containing the genes for antibiotic resistance to G418, puromycin, or blasticidin.
Stable cell lines were generated using either human embryonic kidney (HEK) HEK293 (ATCC, Manassas, VA) or HEK293-6E (National Research Council, Canada) cells. Briefly, cells were transiently transfected with 2CS, 1CS, or G32R null-biosensor plasmids using Lipofecatime 3000 or 293fectin (Thermo Fisher Scientific). Flow cytometry was used to select and enrich for the population of cells expressing respective biosensors. Stable HEK293 cell lines were maintained in phenol red-free DMEM media (Gibco, Waltham, MA) supplemented with 2 mM GlutaMAX (Gibco, Waltham, MA), 10% fetal bovine serum (FBS) (Atlanta Biologicals, Lawrenceville, GA), 1 IU/mL penicillin/streptomycin (Gibco, Waltham, MA), and 250 μg/mL G418 (Fisher Scientific). Stable HEK293-6E cell lines were maintained in F17 media (Sigma Aldrich) supplemented with Kolliphor p188 (Sigma Aldrich, St. Louis, MO), […] GlutaMAX, and either 1 μg/mL puromycin (Invitrogen, Carlsbad, CA) or 2 μg/mL blasticidin (Goldbio) as a selection antibiotic. All cell lines were grown at 37 °C with 5% CO2.
FRET CRC assay plates (0.78–100 μM compound range) with at least ten different compound concentrations were made by adding the appropriate volume of compound or DMSO into black 384 well plates (Greiner Bio-One) using a Mosquito HV (SPTLabTech, United Kingdom). Subsequent Ca^2+-ATPase activity and Ca^2+-transport CRC assay plates (0–50 μM compound range) with repurchased compounds were made in a similar manner using with the Echo 550 (Beckman Coulter) using either 384 well transparent plates (Greiner Bio-One) or black-walled plates with transparent bottoms (Greiner Bio-One), respectively.
On each day of screening, cells were harvested, washed three times with PBS, and centrifuged at 300 g for 5 min. Cells were filtered using a 70 µm cell strainer and diluted to 1–2 × 10^6 cells/mL. Cell concentration and viability were assessed using the Cell countess (Invitrogen) and trypan blue assay. During assays, cells were constantly and gently stirred using a magnetic stir bar at room temperature, keeping the cells in suspension and evenly distributed to avoid clumping. HEK 293-cells expressing 2CS were dispensed at 5 μL or […] per well into assay plates (dispensed into 40 assay plates, each containing 1536 wells) pre-plated with compounds (from a DIVERset 50,000 compound library) using a Multdrop Combi liquid dispenser (Thermo Fisher Scientific, Pittsburg, PA) and sealed until needed. Because the kinetics of membrane permeability, diffusion, and/or binding of the compound to live cells may be compound-dependent, we tested two incubation times, 20 min and 120 min, for the FRET CRC. […] Plates containing eight-point concentration curves of three tool compounds (known SERCA effectors thapsigargin, BHQ, and CPA)[22] were used as positive controls for biosensor function and performance prior to running the full-scale FRET-HTS assay. […]

SERCA2a [3] = target: T1, SERCA2a; experiment: Oxalate-supported Fluo-4 Ca2+-uptake (Ca2+-transport) assay in pig cardiac SR (pCSR) vesicles; format: biochemical; conditions: for Ca2+-Uptake C10: concentration yielding 10% effect; for CR (coupling ratio) VU/VA: maximum Ca2+-uptake rate / Ca2+-ATPase rate at [Ca2+]MAX, DMSO control = 0.66; for Inhibition of Ca2+-uptake (class): strong / moderate / mild; for Decrease of ΔFMAX and ΔFMID for Ca2+-uptake: both [Ca2+], stated as size of decrease
Protocol: as §1
Ca^2+-transport assays were performed with similar porcine SR samples as in the Ca^2+-ATPase assays described above. The compound effect on the Ca^2+-transport activity of SERCA2a was determined using an oxalate-supported assay in which the change in fluorescence in a Ca^2+-sensitive dye, Fluor-4, was determined as previously described. A buffered solution containing 50 mM MOPS (pH 7.0), 100 mM KCl, 30 mg/mL sucrose, 1 mM EGTA, 10 mM potassium oxalate, 2 µM Fluo-4, 30 µg/mL porcine cardiac SR vesicles, CaCl2 calculated to reach the free [Ca^2+] (pCa 8.0, 6.2, and 5.4), and compound (0.048 to 50 μM) was dispensed into 384-well black walled, transparent bottomed plates (Greiner Bio-One) containing the tested small molecule and incubated at 22℃ for 20 min while covered and protected from light. To start the reaction, MgATP was added to a final concentration of 5 mM, and the decrease in 485-nm excited fluorescence of Fluo-4 was monitored at 520 nm for 15 min using a FLIPR Tetra (Molecular Devices, San Jose, CA).
as §2

SERCA2a [4] = target: T1, SERCA2a; set-up: method as in PMID 32397211; conditions: read-out: EC50 of SERCA inhibition; cited from earlier work

T2 sequence (P16615 other isoform, or with tags, fused parts or gaps with the stated changes): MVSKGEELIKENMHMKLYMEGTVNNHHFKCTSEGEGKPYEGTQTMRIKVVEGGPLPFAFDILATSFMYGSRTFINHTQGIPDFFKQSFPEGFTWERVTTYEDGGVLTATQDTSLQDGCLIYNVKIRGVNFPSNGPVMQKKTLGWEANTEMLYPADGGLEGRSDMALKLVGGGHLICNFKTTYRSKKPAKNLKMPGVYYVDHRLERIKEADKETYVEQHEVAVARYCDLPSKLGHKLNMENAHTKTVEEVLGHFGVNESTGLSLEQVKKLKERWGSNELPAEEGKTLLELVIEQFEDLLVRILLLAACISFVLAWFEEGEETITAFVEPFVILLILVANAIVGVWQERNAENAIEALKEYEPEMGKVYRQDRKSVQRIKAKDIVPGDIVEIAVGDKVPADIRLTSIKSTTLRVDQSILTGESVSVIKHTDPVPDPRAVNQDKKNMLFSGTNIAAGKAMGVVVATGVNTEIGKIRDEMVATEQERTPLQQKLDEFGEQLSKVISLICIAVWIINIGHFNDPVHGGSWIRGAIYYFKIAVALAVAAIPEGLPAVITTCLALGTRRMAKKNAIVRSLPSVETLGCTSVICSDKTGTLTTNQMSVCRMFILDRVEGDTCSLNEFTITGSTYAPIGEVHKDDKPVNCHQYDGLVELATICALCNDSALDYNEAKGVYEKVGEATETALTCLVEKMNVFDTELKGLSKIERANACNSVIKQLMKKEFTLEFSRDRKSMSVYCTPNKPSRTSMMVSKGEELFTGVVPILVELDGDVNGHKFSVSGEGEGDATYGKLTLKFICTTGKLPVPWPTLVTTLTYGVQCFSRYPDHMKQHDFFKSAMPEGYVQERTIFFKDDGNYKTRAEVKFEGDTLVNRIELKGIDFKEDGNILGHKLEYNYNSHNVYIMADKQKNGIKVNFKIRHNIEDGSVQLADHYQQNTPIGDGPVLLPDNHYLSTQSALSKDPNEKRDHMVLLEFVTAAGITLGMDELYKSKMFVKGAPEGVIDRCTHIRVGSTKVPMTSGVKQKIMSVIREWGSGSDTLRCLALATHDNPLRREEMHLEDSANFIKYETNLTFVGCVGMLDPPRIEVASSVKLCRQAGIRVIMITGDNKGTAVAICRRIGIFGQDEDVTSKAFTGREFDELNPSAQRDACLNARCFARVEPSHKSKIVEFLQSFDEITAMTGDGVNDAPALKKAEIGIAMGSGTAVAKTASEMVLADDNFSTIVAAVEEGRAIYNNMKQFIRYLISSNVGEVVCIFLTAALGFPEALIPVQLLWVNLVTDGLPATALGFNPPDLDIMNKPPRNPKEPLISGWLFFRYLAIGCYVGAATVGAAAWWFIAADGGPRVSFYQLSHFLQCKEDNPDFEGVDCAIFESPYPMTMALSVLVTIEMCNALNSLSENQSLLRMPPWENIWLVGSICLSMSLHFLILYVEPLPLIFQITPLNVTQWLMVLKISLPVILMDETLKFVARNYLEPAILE
T1 sequence (P11607 1-997 isoform P11607-2): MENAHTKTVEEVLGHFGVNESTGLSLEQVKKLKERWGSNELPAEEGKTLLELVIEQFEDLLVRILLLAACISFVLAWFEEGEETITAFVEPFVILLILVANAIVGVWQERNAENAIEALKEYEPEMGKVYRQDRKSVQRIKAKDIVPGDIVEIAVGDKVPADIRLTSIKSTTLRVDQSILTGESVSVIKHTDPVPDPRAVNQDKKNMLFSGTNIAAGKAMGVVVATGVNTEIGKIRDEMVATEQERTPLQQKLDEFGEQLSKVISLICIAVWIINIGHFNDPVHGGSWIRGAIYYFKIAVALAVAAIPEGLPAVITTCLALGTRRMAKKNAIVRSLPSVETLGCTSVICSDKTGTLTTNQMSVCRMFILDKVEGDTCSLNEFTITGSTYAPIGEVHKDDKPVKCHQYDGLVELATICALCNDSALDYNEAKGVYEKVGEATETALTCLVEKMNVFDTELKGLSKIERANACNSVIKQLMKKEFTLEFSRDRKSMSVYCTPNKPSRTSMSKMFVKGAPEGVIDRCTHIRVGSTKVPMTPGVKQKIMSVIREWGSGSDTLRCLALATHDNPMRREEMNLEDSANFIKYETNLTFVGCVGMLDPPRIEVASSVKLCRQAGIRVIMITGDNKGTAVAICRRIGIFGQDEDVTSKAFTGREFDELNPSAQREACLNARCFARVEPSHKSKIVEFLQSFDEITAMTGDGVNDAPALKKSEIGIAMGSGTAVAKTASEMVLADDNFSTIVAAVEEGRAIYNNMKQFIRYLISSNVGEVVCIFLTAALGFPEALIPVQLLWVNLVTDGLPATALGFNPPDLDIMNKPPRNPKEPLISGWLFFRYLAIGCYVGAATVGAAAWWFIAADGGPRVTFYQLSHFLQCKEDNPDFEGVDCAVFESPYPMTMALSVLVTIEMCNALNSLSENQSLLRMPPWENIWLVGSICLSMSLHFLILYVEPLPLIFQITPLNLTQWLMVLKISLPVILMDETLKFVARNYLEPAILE

SMILES	EC50 (SERCA2a [1]; [Ca2+]MAX (pCa5.4))	Ca2+-ATPase C10 (SERCA2a [1]; [Ca2+]MAX (pCa5.4))	EC50 (SERCA2a [1]; [Ca2+]MID (pCa6.2))	Ca2+-ATPase C10 (SERCA2a [1]; [Ca2+]MID (pCa6.2))	EC50 [2]	EC50 (SERCA2a [3]; [Ca2+]MAX (pCa5.4))	Ca2+-Uptake C10 (SERCA2a [3]; [Ca2+]MAX (pCa5.4))	EC50 (SERCA2a [3]; [Ca2+]MID (pCa6.2))	Ca2+-Uptake C10 (SERCA2a [3]; [Ca2+]MID (pCa6.2))	CR (coupling ratio) VU/VA (SERCA2a [3])	Inhibition of Ca2+-uptake (class) (SERCA2a [3])	Decrease of ΔFMAX and ΔFMID for Ca2+-ATPase activity (SERCA2a [1])	Decrease of ΔFMAX and ΔFMID for Ca2+-uptake (SERCA2a [3])	EC50 (SERCA2a [4])
CCc1ccc(S(=O)(=O)N2CCCC(C(=O)c3sccc3C)C2)cc1 (stereo not drawn) [Compound 14, {1-[(4-ethylphenyl)sulfonyl]-3-piperidinyl}(3-methyl-2-thienyl)methanone]	13 ± 11 µM	6.3 µM	8.9 ± 2.2 µM	3.2 µM	9.2 ± 1.1 µM	3.4 ± 0.2 µM	1.3 µM	3.9 ± 0.2 µM	1.7 µM	0.16	M → S; also recorded: moderate-to-strong	–	–	–
CCC(C)(C)c1nnc(NC(=O)NCc2ccc(F)cc2F)s1 [Compound 15, N-(2,4-difluorobenzyl)-N'-[5-(1,1-dimethylpropyl)-1,3,4-thiadiazol-2-yl]urea]	–	0.7 µM	–	0.4 µM	16 ± 4.7 µM	–	0.9 µM	–	1.7 µM	0.19	–	~ 50%	70–95%	–
O=S(=O)(NCc1ccccc1)N1CCc2ccc(C(F)(F)F)cc2C1 [Compound 17, N-benzyl-7-(trifluoromethyl)-3,4-dihydroisoquinoline-2(1H)-sulfonamide]	–	6.2 µM	–	5 µM	32 ± 5.3 µM	–	1 µM	–	2.2 µM	0.09	–	~ 50%	70–95%	–
Cc1nc(N2CCCCCCC2)ncc1C(C)NC(=O)c1ccnn1C (stereo not drawn) [Compound 18, N-{1-[2-(1-azocanyl)-4-methyl-5-pyrimidinyl]ethyl}-1-methyl-1H-pyrazole-5-carboxamide]	–	2.2 µM	0.18 ± 0.2 µM	1 µM	3 ± 0.3 µM	–	8.6 µM	–	22.7 µM	0.49	Mild → M; also recorded: mild-to-moderate	–	–	–
C/C=C(/C)C(=O)O[C@H]1C(C)=C2[C@H]([C@@H]1OC(=O)CCCCCCC)[C@@](C)(OC(C)=O)C[C@H](OC(=O)CCC)[C@@]1(O)[C@H]2OC(=O)[C@@]1(C)O [Tg, thapsigargin]	–	–	–	–	–	–	–	–	–	–	–	–	–	~0.0075 µM
